# Source: patent publication US20240360177A1, “PEPTIDES WITH ANTIMICROBIAL ACTIVITIES” (priority 2021, published 2024)
# Starred links: 1 amine or outer side, 2 acyl side, 3 side chain; linkers in the order of their positions; H or OH if unused. Non-standard residues stand in square brackets, D forms with d. Residues, ends and D or L forms follow the SMILES beside them. Groups on a side chain read outwards from the residue. N(2-Aminoethyl)Gly = O=C(CN(CCN[*:3])[*:1])[*:2]; NBuGly = CCCCNCC(=O)O; Aoc = NCCCCCCCC(=O)O; Ava = NCCCCC(=O)O; βAla = NCCC(=O)O
# How the values were obtained:
# Conditions in all cases: 24 h
# C. albicans = test system: C. albicans
# C. glabrata = test system: C. glabrata
# C. parapsilosis = test system: C. parapsilosis
# C. tropicalis = test system: C. tropicalis
# C. dubliniensis = test system: C. dubliniensis
Structure (SMILES),MIC C. albicans (C. albicans),MIC C. glabrata (C. glabrata),MIC C. parapsilosis (C. parapsilosis),MIC C. tropicalis (C. tropicalis),MIC C. dubliniensis (C. dubliniensis)
"N=C(N)NCCC[C@H](NC(=O)[C@@H](CCCNC(=N)N)NC(=O)[C@H](CCCNC(=N)N)NC(=O)[C@@H](CCCNC(=N)N)NC(=O)CCNC(=O)[C@H](CCCNC(=N)N)NC(=O)[C@@H](CCCNC(=N)N)NC(=O)[C@H](CCCNC(=N)N)NC(=O)[C@@H](CCCNC(=N)N)NC(=O)CCNC(=O)[C@@H](CCCNC(=N)N)NC(=O)[C@H](CCCNC(=N)N)NC(=O)[C@@H](CCCNC(=N)N)NC(=O)CCNC(=O)[C@H](CCCNC(=N)N)NC(=O)[C@H](CCCNC(=N)N)NC(=O)[C@@H](N)CCCNC(=N)N)C(N)=O [SEQ ID NO: 9, RRR-(Apr)-rRr-(Apr)-rRrR-(Apr)-rRrR-NH2] (H-RRR[βAla][dR]R[dR][βAla][dR]R[dR]R[βAla][dR]R[dR]R-NH2)",0.5 µg/mL,2 µg/mL,0.5 µg/mL,0.5 µg/mL,0.5 µg/mL
"N=C(N)NCCC[C@@H](N)C(=O)N[C@@H](CCCNC(=N)N)C(=O)N[C@H](CCCNC(=N)N)C(=O)NCCC(=O)N[C@@H](CCCNC(=N)N)C(=O)N[C@@H](CCCNC(=N)N)C(=O)N[C@@H](CCCNC(=N)N)C(=O)NCCC(=O)N[C@H](CCCNC(=N)N)C(=O)N[C@@H](CCCNC(=N)N)C(=O)N[C@H](CCCNC(=N)N)C(=O)N[C@@H](CCCNC(=N)N)C(=O)NCCC(=O)N[C@H](CCCNC(=N)N)C(=O)N[C@@H](CCCNC(=N)N)C(=O)N[C@H](CCCNC(=N)N)C(=O)N[C@@H](CCCNC(=N)N)C(N)=O [SEQ ID NO: 10, rRr-(Apr)-RRR-(Apr)-rRrR-(Apr)-rRrR-NH2] (H-[dR]R[dR][βAla]RRR[βAla][dR]R[dR]R[βAla][dR]R[dR]R-NH2)",0.5 µg/mL,2 µg/mL,0.5 µg/mL,0.5 µg/mL,0.5 µg/mL
"N=C(N)NCCC[C@@H](N)C(=O)N[C@@H](CCCNC(=N)N)C(=O)N[C@H](CCCNC(=N)N)C(=O)NCCC(=O)N[C@H](CCCNC(=N)N)C(=O)N[C@@H](CCCNC(=N)N)C(=O)N[C@H](CCCNC(=N)N)C(=O)NCCC(=O)N[C@@H](CCCNC(=N)N)C(=O)N[C@@H](CCCNC(=N)N)C(=O)N[C@@H](CCCNC(=N)N)C(=O)N[C@@H](CCCNC(=N)N)C(=O)NCCC(=O)N[C@H](CCCNC(=N)N)C(=O)N[C@@H](CCCNC(=N)N)C(=O)N[C@H](CCCNC(=N)N)C(=O)N[C@@H](CCCNC(=N)N)C(N)=O [SEQ ID NO: 11, rRr-(Apr)-rRr-(Apr)-RRRR-(Apr)-rRrR-NH2] (H-[dR]R[dR][βAla][dR]R[dR][βAla]RRRR[βAla][dR]R[dR]R-NH2)",1 µg/mL,>32 µg/mL,0.5 µg/mL,2 µg/mL,0.5 µg/mL
"N=C(N)NCCC[C@@H](N)C(=O)N[C@@H](CCCNC(=N)N)C(=O)N[C@H](CCCNC(=N)N)C(=O)NCCC(=O)N[C@H](CCCNC(=N)N)C(=O)N[C@@H](CCCNC(=N)N)C(=O)N[C@H](CCCNC(=N)N)C(=O)NCCC(=O)N[C@H](CCCNC(=N)N)C(=O)N[C@@H](CCCNC(=N)N)C(=O)N[C@H](CCCNC(=N)N)C(=O)N[C@@H](CCCNC(=N)N)C(=O)NCCC(=O)N[C@@H](CCCNC(=N)N)C(=O)N[C@@H](CCCNC(=N)N)C(=O)N[C@@H](CCCNC(=N)N)C(=O)N[C@@H](CCCNC(=N)N)C(N)=O [SEQ ID NO: 12, rRr-(Apr)-rRr-(Apr)-rRrR-(Apr)-RRRR-NH2] (H-[dR]R[dR][βAla][dR]R[dR][βAla][dR]R[dR]R[βAla]RRRR-NH2)",0.5 µg/mL,>32 µg/mL,0.5 µg/mL,1 µg/mL,0.5 µg/mL
"N=C(N)NCCC[C@@H](N)C(=O)N[C@@H](CCCNC(=N)N)C(=O)N[C@H](CCCNC(=N)N)C(=O)NCCCCCCCC(=O)N[C@H](CCCNC(=N)N)C(=O)N[C@@H](CCCNC(=N)N)C(=O)N[C@H](CCCNC(=N)N)C(=O)NCCCCCCCC(=O)N[C@H](CCCNC(=N)N)C(=O)N[C@@H](CCCNC(=N)N)C(=O)N[C@H](CCCNC(=N)N)C(=O)N[C@@H](CCCNC(=N)N)C(=O)NCCCCCCCC(=O)N[C@H](CCCNC(=N)N)C(=O)N[C@@H](CCCNC(=N)N)C(=O)N[C@H](CCCNC(=N)N)C(=O)N[C@@H](CCCNC(=N)N)C(=O)O [SEQ ID NO: 30, rRr-(Aoa)-rRr-(Aoa)-rRrR-(Aoa)-rRrR] (H-[dR]R[dR][Aoc][dR]R[dR][Aoc][dR]R[dR]R[Aoc][dR]R[dR]R-OH)",1 µg/mL,1 µg/mL,0.5 µg/mL,1 µg/mL,0.5 µg/mL
"CCCCN(CC(=O)N[C@H](CCCNC(=N)N)C(=O)N[C@@H](CCCNC(=N)N)C(=O)N(CCCC)CC(=O)N[C@H](CCCNC(=N)N)C(=O)N[C@@H](CCCNC(=N)N)C(=O)N[C@H](CCCNC(=N)N)C(=O)N(CCCC)CC(=O)N[C@H](CCCNC(=N)N)C(=O)N[C@@H](CCCNC(=N)N)C(=O)N[C@H](CCCNC(=N)N)C(N)=O)C(=O)[C@H](CCCNC(=N)N)NC(=O)[C@H](N)CCCNC(=N)N [SEQ ID NO: 36, rR-(ButylGly)-rR-(ButylGly)-rRr-(ButylGly)-rRr-NH2] (H-[dR]R[NBuGly][dR]R[NBuGly][dR]R[dR][NBuGly][dR]R[dR]-NH2)",0.5 µg/mL,4 µg/mL,16 µg/mL,2 µg/mL,2 µg/mL
"N=C(N)NCCC[C@@H](N)C(=O)N[C@@H](CCCNC(=N)N)C(=O)N[C@H](CCCNC(=N)N)C(=O)NCCNCC(=O)N[C@H](CCCNC(=N)N)C(=O)N[C@@H](CCCNC(=N)N)C(=O)N[C@H](CCCNC(=N)N)C(=O)NCCCCC(=O)N[C@H](CCCNC(=N)N)C(=O)N[C@@H](CCCNC(=N)N)C(=O)N[C@H](CCCNC(=N)N)C(=O)N[C@@H](CCCNC(=N)N)C(=O)NCCCCC(=O)N[C@H](CCCNC(=N)N)C(=O)N[C@@H](CCCNC(=N)N)C(=O)N[C@H](CCCNC(=N)N)C(=O)N[C@@H](CCCNC(=N)N)C(N)=O [SEQ ID NO: 41, rRr-(Aeg)-rRr-(Ava)-rRrR-(Ava)-rRrR-NH2] (H-[N(2-Aminoethyl)Gly]([dR-Arg-dR])[dR]R[dR][Ava][dR]R[dR]R[Ava][dR]R[dR]R-NH2)",1 µg/mL,2 µg/mL,1 µg/mL,1 µg/mL,0.5 µg/mL
"N=C(N)NCCC[C@@H](N)C(=O)N[C@@H](CCCNC(=N)N)C(=O)N[C@H](CCCNC(=N)N)C(=O)NCCCCC(=O)N[C@H](CCCNC(=N)N)C(=O)N[C@@H](CCCNC(=N)N)C(=O)N[C@H](CCCNC(=N)N)C(=O)NCCNCC(=O)N[C@H](CCCNC(=N)N)C(=O)N[C@@H](CCCNC(=N)N)C(=O)N[C@H](CCCNC(=N)N)C(=O)N[C@@H](CCCNC(=N)N)C(=O)NCCCCC(=O)N[C@H](CCCNC(=N)N)C(=O)N[C@@H](CCCNC(=N)N)C(=O)N[C@H](CCCNC(=N)N)C(=O)N[C@@H](CCCNC(=N)N)C(N)=O [SEQ ID NO: 42, rRr-(Ava)-rRr-(Aeg)-rRrR-(Ava)-rRrR-NH2]",1 µg/mL,1 µg/mL,0.5 µg/mL,0.5 µg/mL,0.5 µg/mL
